Laboratory results taken from patent publication US10227356B2, “Compounds, compositions and methods for inhibiting CNKSR1” (Phusis Therapeutics, Inc., priority 2015, dated 2019).
Read-outs that look alike come from different tables or passages of the source.

Key:
mut-KRas NSCLC lines [1] = assay: Proliferation assay 2D, mut-KRas NSCLC lines; assay type: cell-based; settings: for In vitro IC50 against mut-KRas NSCLC 2D ave: mean of 12 mut-KRas NSCLC lines; for IC50: range across mut-Kras cell lines, read-out: In vitro IC50 against mut-KRas NSCLC 2D range
Description: A panel of 30 cell lines and an extensive characterization were obtained from Dr. John Minna (UTSW). All cell lines were cultured in RPMI 1640 with 10% FBS. Cells were treated with concentrations of agents at concentrations 0.01 to 50 μM and evaluated as described above. IC50's were determined using Excelfit.

Pharmacokinetics (PK) = assay type: in vivo; parameters: AUC: concentration or dose not given beside the values; settings: for half-life: read-out: PK T1/2 (converted)
wt-KRAS cells = assay: Proliferation assay, wt-KRAS cell lines; assay type: cell-based; settings: read-out: Ave IC50 wt-KRAS
Description: (§1) These cells were cultured in McCoys media with 10% FBS to 80% confluency. […] Cells were incubated for 72 hours with the drugs, and then viability was assessed using an MTS viability assay. Cells were exposed to MTS reagent (Promega) dissolved in PBS (Hyclone) at a concentration of 200 μL reagent/mL media for 2 hours. Absorbance was then read at 490 nm, and viability was expressed as a percentage normalized between the negative control (no cells plated) and the condition of cells with no drug added (100% viability) normalized as the upper limit of viability. A panel of 30 cell lines and an extensive characterization were obtained from Dr. John Minna (UTSW). All cell lines were cultured in RPMI 1640 with 10% FBS. […] IC50's were determined using Excelfit.

mut-KRAS cells = assay: Proliferation assay, mut-KRAS cell lines; assay type: cell-based; settings: read-out: Ave IC50 mut-KRAS
Description: as §1

AKT1 PH-domain = target: T1, AKT1 PH-domain (Homo sapiens, UniProt P31749); assay: Surface plasmon resonance binding to AKT PH-domain; settings: SPR; ND = no binding determined
T1 construct: The PH-domain His-fusion proteins (CNK1 and AKT1) were expressed and immobilized on a NTA chip; made in house
Description: All interaction analyses were done with a Biacore T200 Control Software v3.2, and BIAevaluation v2.0 analysis software (Biacore). The PH-domain His-fusion proteins (CNK1 and AKT1) were expressed and immobilized on a NTA chip to a level of 10,000 response units or less. Small molecule analytes at concentrations ranging from 50 μM to 0.010 μM were injected at a high flow rate (30 μL/min). DMSO concentrations in all samples and running buffer were 1-5% (v/v) […]
A commercially available docking package GLIDE was chosen as the docking algorithm used to select and optimize compounds, providing a GlideScore as a rough estimate of binding affinity that was used to rank and select the best compounds. Additionally, ligand-based approaches provided an alternative to structure based drug discovery. Ligand-based virtual screening methodologies can take into account shape and electrostatics and the pharmacophoric features (acceptor, donor, hydrophobic, aromatic, etc.) of its functional groups. Inositol tetraphosphate (IP4) binding to the PH-domain of CNKSR1 provided a good starting point for shape screening. Both structure-based and ligand-based approaches were used to find novel compounds and to refine and improve lead compounds (Tables 2, 3 and 4). SPR interaction analyses for the compounds were performed with a Biacore T200, using BiacoreT200 Control Software v3.2 and BIAevaluation v2.0analysis software (Biacore).

mut-KRas NSCLC lines [2] = assay: Proliferation assay 3D, mut-KRas NSCLC lines; assay type: cell-based; settings: for In vitro IC50 against mut-KRas NSCLC 3D ave: mean of 6 mut-KRas NSCLC lines; for IC50: range across mut-Kras cell lines, read-out: In vitro IC50 against mut-KRas NSCLC 3D range
Description: The plates were optimized for the best cell density and found to be 20,000 cells per mL. The lid was removed from a 96-well Greiner plate and turned upside down. 20 μL of the 20,000 cells per mL suspension was then added directly into the middle of the circles found on the lid of the 96-well plate forming a small drop. 100 μL of media was added into the corresponding wells, used to maintain the […] of the drops, and the lid was flipped back over carefully placing it back onto the plate without disturbing the drop. The plate was then placed into the incubator for 3 days to allow the cells to migrate to the bottom of the drop due to gravity. After 3 days, […] of media was added to the corresponding wells a SCIVAX 96-well plate. The lid from the Greiner 96-well plate was removed and placed onto the SCIVAX plate allowing the drop to come in contact with the media and placed back into the incubator. After one hour, 200 μL of media was removed from the corresponding wells carefully without disturbing the spheroid and imaged.

CNK1 = target: T2, CNK1 (Homo sapiens, UniProt Q969H4); assay: SPR competition, CNK1 binding to PIP3; settings: read-out: SPR Competition Percent inhibition of CNK1 binding to PIP3 at 50 μM, X = none
T2 construct: The PH-domain His-fusion proteins (CNK1 and AKT1) were expressed and immobilized on a NTA chip; made in house
T2 sequence (Q969H4 403-502 limits assumed): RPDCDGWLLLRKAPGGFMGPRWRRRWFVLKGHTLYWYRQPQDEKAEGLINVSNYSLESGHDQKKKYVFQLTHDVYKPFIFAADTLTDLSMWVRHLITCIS

PH-domain of CNKSR1 = target: T3, PH-domain of CNKSR1 (Homo sapiens, UniProt Q969H4); assay: Surface plasmon resonance binding to CNK PH-domain
T3 construct: The PH-domain His-fusion proteins (CNK1 and AKT1) were expressed and immobilized on a NTA chip; made in house
T3 sequence (Q969H4 403-502 limits assumed): T2 sequence (Q969H4 403-502 limits assumed)
Source text: The PH-domain His-fusion proteins (CNK1 and AKT1) were expressed and immobilized on a NTA chip to a level of 10,000 response units or less.
Additionally, ligand-based approaches provided an alternative to structure based drug discovery.

[3] = Summary table for CNKSR1 inhibitors, read-out: SPR Kd

T1 sequence (P31749 5-108 limits assumed): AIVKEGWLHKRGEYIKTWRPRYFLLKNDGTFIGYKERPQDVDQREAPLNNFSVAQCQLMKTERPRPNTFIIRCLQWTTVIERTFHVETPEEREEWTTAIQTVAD

| SMILES | In vitro IC50 against mut-KRas NSCLC 2D ave (mut-KRas NSCLC lines [1]) | IC50 (mut-KRas NSCLC lines [1]) | AUC (Pharmacokinetics (PK); in vivo) | half-life (Pharmacokinetics (PK); in vivo) | IC50 (wt-KRAS cells) | IC50 (mut-KRAS cells) | IC50 (mut-KRas NSCLC lines [2]) | further results |
| --- | --- | --- | --- | --- | --- | --- | --- | --- |
| COc1c(/C=C/C(=O)NCc2ccco2)c(NS(=O)(=O)c2cccs2)cc2c1OCO2 [Compound 108] | 35 µM | 0.2 to 100 µM | 3410 ng·h/mL | 1 h | 100 µM | 5.2 µM |  |  |
| COc1c(/C=C/CO)c(NS(=O)(=O)c2cccs2)cc2c1OCCO2 [Compound 115] | 11.2 µM | 1.6 to 100 µM |  |  | 100 µM | 39.1 µM |  |  |
| CCOC(=O)/C=C/c1cc(NS(=O)(=O)c2cccs2)c2c(c1OC)OCO2 [Compound 86, (E)-ethyl 3-(4-methoxy-7-(thiophene-2-sulfonamido)benzo[d][1,3]dioxol-5-yl)acrylate] |  |  |  |  |  |  |  | Kd (AKT1 PH-domain): > 500 µM |
| CCOC(=O)/C=C/c1cc(NS(=O)(=O)c2cccs2)c2c(c1OC)OCCO2 [Compound 116] |  |  |  |  |  |  |  | IC50 (mut-KRAS cells; average over mut-KRAS lines): 100 µM |
| COc1c(/C=C/C(=O)N2CCN(C)CC2)c(NS(=O)(=O)c2cccs2)cc2c1OCO2 [Compound 111] | 19.2 µM | 0.6 to 100 µM | 30000 ng·h/mL | 1 h | 33.7 µM | 4.1 µM | 0.12 to 13.2 µM | In vitro IC50 against mut-KRas NSCLC 3D ave (mut-KRas NSCLC lines [2]): 4.1 µM |
| COc1c(/C=C/C(=O)O)c(NS(=O)(=O)c2cccs2)cc2c1OCCO2 [Compound 114] | 57 µM | 12.1 to 100 µM |  |  | 100 µM | 85 µM |  |  |
| COc1c(/C=C/C(=O)O)cc(NS(=O)(=O)c2cccs2)c2c1OCO2 [Compound 84, (E)-3-(4-methoxy-7-(thiophene-2-sulfonamido)benzo[d][1,3]dioxol-5-yl)acrylic acid] |  |  |  |  |  |  |  | AKT KD (AKT1 PH-domain): No binding |
| O=c1ccoc2c3c(cc(NS(=O)(=O)c4cccs4)c12)OCO3 [Compound 104] |  |  |  |  |  |  |  | IC50 (wt-KRAS cells; average over wt-KRAS lines): 100 µM; inhibition at 50 µM (CNK1): 0%; IC50 (mut-KRAS cells; average over mut-KRAS lines): 16.6 µM |
| CCOC(=O)/C=C/c1c(NS(=O)(=O)c2cccs2)cc2c(c1OC)OCCO2 [Compound 113] | 25 µM | 13.7 to 100 µM |  |  | 100 µM | 55.1 µM |  |  |
| CCOC(=O)CCc1cc(NS(=O)(=O)c2cccs2)c2c(c1OC)OCO2 [Compound 85, ethyl 3-(4-methoxy-7-(thiophene-2-sulfonamido)benzo[d][1,3]dioxol-5-yl)propanoate] |  |  |  |  |  |  |  | Kd (AKT1 PH-domain): > 500 µM; Kd (PH-domain of CNKSR1; SPR, ND = no binding determined, read-out: CNK KD): > 500 µM |
| COc1c(/C=C2\SC(=S)NC2=O)c(NS(=O)(=O)c2cccs2)cc2c1OCO2 [Compound 103] | 25 µM | 5.1 to 60 µM |  |  |  |  |  | IC50 (wt-KRAS cells; average over wt-KRAS lines): 95 µM; IC50 (mut-KRAS cells; average over mut-KRAS lines): 14.7 µM |
| COc1c(/C=C/C(=O)NCC(C)O)c(NS(=O)(=O)c2cccs2)cc2c1OCO2 (centres unmarked) [Compound 112] | 65 µM | 19 to 100 µM |  |  | 100 µM | 25 µM |  |  |
| CCOC(=O)/C=C/c1c(NS(=O)(=O)c2cccs2)cc2c(c1OC)OCO2 [Compound 151, ethyl 3-[4-methoxy-6-(thiophene-2-sulfonamido)-2H-1,3-benzodioxol-5-yl]prop-2-enoate] | 18 µM | 0.5 to 100 µM |  | 0.5 h |  |  | 0.025 to 2.7 µM | PK metabolism (remark in place of AUC) (Pharmacokinetics (PK); AUC NA): rapid; In vitro IC50 against mut-KRas NSCLC 3D ave (mut-KRas NSCLC lines [2]): 0.69 µM |
| CN1CC(=O)N(/C=C/c2cc(NS(=O)(=O)c3cccs3)c3c(c2O)OCO3)C1=O [Compound 91, (E)-N-(7-hydroxy-6-(2-(3-methyl-2,5-dioxoimidazolidin-1-yl)vinyl)benzo[d][1,3]dioxol-4-yl)thiophene-2-sulfonamide] | 23 µM | 6 to 35 µM |  | 1 h |  |  |  | Cmax (Pharmacokinetics (PK); in vivo, printed in the T1/2/AUC column): 2200 nM; Kd (PH-domain of CNKSR1; [3]): 36 µM |
| COc1c(/C=C/C(N)=O)c(NS(=O)(=O)c2cccs2)cc2c1OCO2 [Compound 107] | 19.5 µM | 1 to 100 µM | 34500 ng·h/mL | 3.2 h | 100 µM | 1.5 µM | 0.82 to 75 µM | In vitro IC50 against mut-KRas NSCLC 3D ave (mut-KRas NSCLC lines [2]): 1.5 µM |
| CCNC(=O)/C=C/c1c(NS(=O)(=O)c2cccs2)cc2c(c1OC)OCO2 [Compound 105] | 6.7 µM | 1.6 to 94 µM |  |  | 100 µM | 10 µM |  |  |
| CNC(=O)/C=C/c1c(NS(=O)(=O)c2cccs2)cc2c(c1OC)OCO2 [Compound 106] | 16.3 µM | 0.8 to 100 µM | 7000 ng·h/mL | 1.7 h | 68 µM | 8.4 µM | 0.096 to 75 µM | In vitro IC50 against mut-KRas NSCLC 3D ave (mut-KRas NSCLC lines [2]): 8.4 µM |
| COc1c(/C=C/C(=O)NC2CC2)c(NS(=O)(=O)c2cccs2)cc2c1OCO2 [Compound 110] | 15.7 µM | 4.3 to 100 µM |  |  |  |  | 0.23 to 75 µM | IC50 (wt-KRAS cells; average over wt-KRAS lines): 35.7 µM; In vitro IC50 against mut-KRas NSCLC 3D ave (mut-KRas NSCLC lines [2]): 1.2 µM; Kd (PH-domain of CNKSR1; [3]): < 50 µM; inhibition at 50 µM (CNK1): 0%; IC50 (mut-KRAS cells; average over mut-KRAS lines): 1.2 µM |
| COc1c(/C=C/C(=O)N2CCOCC2)c(NS(=O)(=O)c2cccs2)cc2c1OCO2 [Compound 109] | 18.9 µM | 0.1 to 100 µM | 1200 ng·h/mL | 0.75 h | 100 µM | 6.5 µM |  |  |
| COc1c(/C=C/CO)c(NS(=O)(=O)c2cccs2)cc2c1OCO2 [Compound 152, N-{6-[(1E)-3-hydroxyprop-1-en-1-yl]-7-methoxy-2H-1,3-benzodioxol-5-yl}thiophene-2-sulfonamide] | 20 µM | 0.1 to 100 µM | 7000 ng·h/mL | 3.1 h |  |  | 0.015 to 0.26 µM |  |
